{"source": "patent US20090117563A1", "about": "“Identification of TRPML3 (MCOLN3) as a Salty Taste Receptor and Use in Assays for Identifying Taste (Salty) Modulators and/or Therapeutics that Modulate Sodium Transport, Absorption or Excretion and/or Aldosterone and/or Vasopressin Production or Release” (priority 2007, published 2009)", "biological_target": "T1, A419P TRPML3 (Homo sapiens, UniProt Q8TDD5, A419P)", "T1 construct": "expressed in transfected cells", "T1 sequence (Q8TDD5 1-553 A419P)": "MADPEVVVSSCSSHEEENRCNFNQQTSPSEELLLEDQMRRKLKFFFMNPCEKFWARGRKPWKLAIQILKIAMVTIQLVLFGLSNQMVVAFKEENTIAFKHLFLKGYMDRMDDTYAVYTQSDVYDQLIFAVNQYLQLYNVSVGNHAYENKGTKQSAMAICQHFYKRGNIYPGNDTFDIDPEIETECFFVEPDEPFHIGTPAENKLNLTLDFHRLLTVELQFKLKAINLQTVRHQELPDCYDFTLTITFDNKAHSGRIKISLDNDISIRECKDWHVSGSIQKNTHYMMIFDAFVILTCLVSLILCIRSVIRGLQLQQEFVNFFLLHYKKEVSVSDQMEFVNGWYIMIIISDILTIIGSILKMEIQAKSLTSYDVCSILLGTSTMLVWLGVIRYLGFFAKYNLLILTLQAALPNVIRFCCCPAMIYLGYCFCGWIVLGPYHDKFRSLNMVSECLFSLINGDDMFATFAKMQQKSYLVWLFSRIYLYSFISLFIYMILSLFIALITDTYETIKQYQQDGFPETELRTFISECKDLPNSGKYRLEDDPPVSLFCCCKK", "assay": "IonWorks PPC patch clamp, inducible CHO-K1 cell line expressing A419P TRPML3", "format": "cell-based", "details": "4 mM GdCl3 solution", "from_the_text": "Different versions of human TRPML3 can be assayed, included but not limited to a wild-type version and a gain of function mutant version encoding an A419P substitution. TRPML3 can be expressed in CHO-K1 cells by one of three methods: (i) transient transfection (ii) BacMam transduction or (iii) a stable transfection and TRPML3 function measured using the perforated patch clamp technique on an IonWorks Quattro instrument (MDS Analytical Technologies). Cells are dissociated with Detachin cell detachment solution (Genlantis), centrifuged, and resuspended in external recording buffer (150 mM NaCl, 2 mM KCl, 1.5 mM CaCl2, 1 mM MgCl2, 10 mM HEPES pH 7.4 with NaOH). […]\nThe following description illustrates the IonWorks screening assay to identify compounds that modulate (activate or block) TRPML3 function. […] In each scan currents are measured as the voltage is modified (see example voltage command trace in FIG. 29).\nCompounds will be applied at concentrations between ˜1 uM and 100 uM. […] Compounds that enhance TRPML3 by affecting the voltage dependent rectification will be preferentially detected at −40 mV where the rectification is strong while compounds that block TRPML3 will be preferentially detected at −120 mV where the TRPML3 currents are larger. To quantitate the effect of a compound on TRPML3 function, we use the following formula: [(A−Ao)/(B−Bo)]×100. […]", "data": [{"compound": "[Cl][Gd]([Cl])[Cl]", "note": "[gadolinium, gadolinium chloride]", "values": [{"measurement": "effect on TRPML3 current (IonWorks scan)", "result": "blocks TRPML3 current"}]}]}
